According to patent US20040053234A1, “Polynucletides that control delta-6 desaturase genes and methods for identifying compounds for modulating delta-6 desaturase” (priority 2000, published 2004):

Tests used:
[1] = biological target: T1, hD6D-1 (with V5/6xHis tags) (Homo sapiens, UniProt O95864); test: Inhibition of hD6D-1 in whole cells of transformed Saccharomyces cerevisiae; assay type: cell-based; set-up: expressed in transfected cells; host or cells: Saccharomyces cerevisiae INVSc1 transformed with pTh5002.1 (pYES2/CT); details: [1-14C]-alpha-linolenic acid
T1 sequence (O95864 1-444): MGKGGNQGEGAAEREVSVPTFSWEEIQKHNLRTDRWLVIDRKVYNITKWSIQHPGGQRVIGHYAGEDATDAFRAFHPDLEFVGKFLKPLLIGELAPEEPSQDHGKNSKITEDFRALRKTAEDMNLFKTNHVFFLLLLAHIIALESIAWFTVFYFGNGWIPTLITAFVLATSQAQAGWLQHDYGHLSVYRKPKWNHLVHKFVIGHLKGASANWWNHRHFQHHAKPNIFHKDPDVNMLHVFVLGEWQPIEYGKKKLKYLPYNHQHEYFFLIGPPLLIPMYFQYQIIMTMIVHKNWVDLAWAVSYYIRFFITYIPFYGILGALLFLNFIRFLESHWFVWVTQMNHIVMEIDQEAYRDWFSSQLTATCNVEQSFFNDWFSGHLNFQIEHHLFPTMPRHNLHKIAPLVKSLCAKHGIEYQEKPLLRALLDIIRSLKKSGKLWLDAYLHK
Description: Transformed Saccharomyces cerevisiae pTh5002.1 with V5/6xHis tags were incubated in a 125 ml Erlenmeyer flask containing 9 ml of modified SC-U medium with 1% tergitol (O.D.6000.4, approximately 3.2×10^6 cells) and 200 μl of 7, 14 or 28 mM n-propyl gallate in ethanol. After 1 h incubation in an orbital incubator at 270 rpm and 30° C., 1 μCi of potassium salts of [1-^14C]-linoleic or [1-^14C]-alpha-linolenic acids (dissolved in modified SC-U medium and 1% tergitol) were added to the cell suspension to a final concentration of 2 μM. After 5 h incubation with the inhibitor, cells reached the log phase and the transgene expression was induced with the addition of 1 ml of galactose to a final concentration of 2%. Yeast were further incubated for 19 h (OD600 range 7.2-9.3) until they were harvested by centrifugation at 5000×g for 10 minutes at 4° C. Cell were washed with Tris buffer (100 mM, pH 8.0) containing 0.1% BSA and total lipids were extracted as described below.
The radioactivity from aliquots of the supernatant, spheroplasts and whole cells was determined by liquid scintillation counting using a LS6500-Scintillation System (Beckman) prior to the lipid extraction. […]
The desaturase activity was determined by measuring the conversion of radiolabelled linoleic acid to gammna-linolenic acid (18:2n-6 to 18:3n-6) and alpha-linolenic acid to stearidonic acid (18:3n-3 to 18:4n-3). […]

delta 6 desaturase = biological target: T2, delta 6 desaturase (Rattus norvegicus, UniProt Q9Z122); test: Inhibition of delta 6 desaturase in rat liver microsomes incubated with alpha-linolenic or linoleic acid; assay type: biochemical
T2 construct: from tissue; host or cells: rat liver microsomes (female Wistar rats)
T2 sequence (Q9Z122 whole entry): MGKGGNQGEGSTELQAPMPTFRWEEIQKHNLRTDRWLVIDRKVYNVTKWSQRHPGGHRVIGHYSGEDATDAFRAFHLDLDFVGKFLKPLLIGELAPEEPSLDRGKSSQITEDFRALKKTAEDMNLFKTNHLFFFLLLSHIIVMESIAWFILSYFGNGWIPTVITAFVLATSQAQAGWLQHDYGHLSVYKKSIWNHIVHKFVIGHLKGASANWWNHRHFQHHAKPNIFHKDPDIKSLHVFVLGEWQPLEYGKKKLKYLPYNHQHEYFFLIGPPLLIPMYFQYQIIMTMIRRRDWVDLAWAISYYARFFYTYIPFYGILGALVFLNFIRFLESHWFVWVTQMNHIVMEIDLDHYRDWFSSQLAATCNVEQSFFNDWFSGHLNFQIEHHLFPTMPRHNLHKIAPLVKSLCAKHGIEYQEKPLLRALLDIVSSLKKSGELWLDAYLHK
Description: As proposed by Leikin and Brenner (Leikin A. I. and Brenner R. R., 1989, Biochim. Biophys. Acta. September 25, 1005: 187-191), the following are best conditions for the desaturation assays since the enzymes are saturated with the substrates and the reactions are linear within the incubation time. Reactions were started by adding 2 or 3 mg of microsomal protein to pre-incubated tubes containing 0.20 μCi of the substrate fatty acid at a final concentration of 33.3 μM in 1.5 ml of the homogenization solution, containing NaF (42 mM), niacinamide (0.33 mM), ATP (1.57 mM), NADH (1.01 mM) and coenzyme A (0.09 mM) as described elsewhere (Leikin A. I. and Brenner R. R., 1989, Biochim. Biophys. Acta. September 25,1005: 187-191).The tubes were vortexed vigorously and after 15 min incubation in a shaling water bath (37° C.), the reactions were stopped by the addition of 2 ml of 10% (w/v) KOH in ethanol. Lipids in the incubation mixture were saponified at 80° C. for 45 min under N2. The samples were then left in ice for 5 min before acidification. The fatty acids were extracted with hexane and esterified with BF3/methanol at 90° C. for 30 min (Morrison W. R. and Smith L. M., 1964, J. Lipid Res., 5: 600-608).
Hepatic microsomes were obtained from female Wistar rats by differential centrifigation as described in Example 3.
Incubations were performed as described in Example 3. N-propyl gallate was added to the incubation medium to a final concentration that ranged from 0.02 to 0.32 mM.

[2] = biological target: T1, hD6D-1 (with V5/6xHis tags); test: Inhibition of hD6D-1 in spheroplasts of transformed Saccharomyces cerevisiae; details: [1-14C]-alpha-linolenic acid
Description: (§1) Saccharomyces cerevisiae transformed with pYr5003.1 without V5/6×His tags or pTh5002.1 with V5/6×His tags were grown in modified SC-U medium with 2% galactose to induce the expression of the gene that encodes the fatty acid delta-6-desaturase. After 16 h incubation, cells were centrifuged at 2060×g for 5 min at 4° C., washed once with distilled water and centrifuged again. The volume and weight of the cell pellet were measured Cells were suspended (1:2 w/v) in 0.1 M Tris.SO4 (pH 9.4), 10 mM DTT and incubated at 30° C. After 10 min incubation, the cell pellet was obtained by centrifugation, washed once (1:20 w/v) with 1.2 M sorbitol and suspended (1:1 w/v) in 1.2 M sorbitol, 20 mM phosphate buffer (pH 7.4) as described elsewhere (Daum et al., 1982, J. Biol. Chem., 257: 13028-13033). The 15,800× g (1 min) supernatant of Lyticase was added to the cell suspension at a concentration of 2000 U/ml and the suspension incubated at 30° C. with 50 rpm shaking. Conversion to spheroplasts was checked after 40 min incubation by diluting the suspension with distilled water followed by observation under the microscope (Schatz G. and Kovac L., 1974, Methods in Enzymology, 31A: 627-632).
(§2) Spheroplasts were harvested by centrifugation at 2060×g for 5 min at 4° C. and washed once with 1.2 M sorbitol. Spheroplasts were suspended in modified SC-U medium with 1% tergitol, 1.2 M sorbitol and 2% galactose to maintain the induction conditions and to give an OD600 reading of approximately 2.5-3.0. A 10 ml aliquot of the spheroplast suspension was transferred to a 125 ml Erlenmeyer flask and incubated with 200 μL of n-propyl gallate in ethanol (final concentration in the culture ranged between 0.7 and 14.1 mM) at 30° C. in an orbital incubator set at 270 rpm After 30 min incubation 1 μCi of [1-^14C]-alpha-linolenic or [1-^14C]-linoleic acids were added to the cultures to a final concentration of 2 μM and further incubated for 120 min. At this time point, turbidity readings at OD600 were taken, spheroplasts were harvested by centrifugation and washed with Tris buffer (100 mM, pH 8.0) containing 0.1%/o BSA. Total lipids were extracted as described below.
(§3) The radioactivity from aliquots of the supernatant, spheroplasts and whole cells was determined by liquid scintillation counting using a LS6500-Scintillation System (Beckman) prior to the lipid extraction. Total lipids were extracted from cells or spheroplasts with chloroform/methanol (2:1 v/v) according to the method of Folch et al., 1957, J. Biol. Chem., 226: 497-509. The total lipid extracts were methylated using boron trifluoride in methanol at 90° C. for 30 min.
(§4) The desaturase activity was determined by measuring the conversion of radiolabelled linoleic acid to gammna-linolenic acid (18:2n-6 to 18:3n-6) and alpha-linolenic acid to stearidonic acid (18:3n-3 to 18:4n-3). The percent inhibition was calculated as described elsewhere (Kawashima et al., 1996, Biosci. Biotech. Biochem., 60:1672-1676):
(§5) Inhibition % =(activity without the inhibitor−activity with the inhibitor)/activity without the inhibitor

[3] = biological target: T3, rD6D-1 (without V5/6xHis tags) (Rattus norvegicus, UniProt Q9Z122)
T3 sequence (Q9Z122 whole entry): as above
Description: as §1, §2, §3, §4, §5

[4] = system: whole cells of transformed Saccharomyces cerevisiae; test: O.D.600 and substrate radioactivity recovered in whole yeast cells; details: hD6D-1 whole cells
Description: Transformed Saccharomyces cerevisiae pTh5002.1 with V5/6xHis tags were incubated in a 125 ml Erlenmeyer flask containing 9 ml of modified SC-U medium with 1% tergitol (O.D.6000.4, approximately 3.2×10^6 cells) and 200 μl of 7, 14 or 28 mM n-propyl gallate in ethanol. After 1 h incubation in an orbital incubator at 270 rpm and 30° C., 1 μCi of potassium salts of [1-^14C]-linoleic or [1-^14C]-alpha-linolenic acids (dissolved in modified SC-U medium and 1% tergitol) were added to the cell suspension to a final concentration of 2 μM. After 5 h incubation with the inhibitor, cells reached the log phase and the transgene expression was induced with the addition of 1 ml of galactose to a final concentration of 2%.

[5] = system: spheroplasts of transformed Saccharomyces cerevisiae; test: O.D.600 and substrate radioactivity recovered in spheroplasts (cytotoxicity, uptake); assay type: cell-based
From the text: Total lipids were extracted as described below.

[6] = biological target: T1, hD6D-1 (with V5/6xHis tags)
Description: as §1, §2, §3, §4, §5

fatty acid desaturases = details: Kawashima et al., 1996; cited from earlier work
[7] = biological target: T3, rD6D-1 (without V5/6xHis tags); test: Inhibition of rD6D-1 in spheroplasts of transformed Saccharomyces cerevisiae; details: [1-14C]-linoleic acid
Description: as §1, §2, §3, §4, §5

Compound: CCCOC(=O)c1cc(O)c(O)c(O)c1 [n-propyl gallate, Propyl ester of 3,4,5-trihydroxybenzoic acid]
- % of inhibition ([1]; inhibitor 7 mM): 36.7%
- % of inhibition ([1]; inhibitor 14 mM): 73.6%
- % of inhibition 18:2n-6 → 18:3n-6 (delta 6 desaturase; inhibitor 0.02 mM): 18.0%
- % of inhibition 18:3n-3 → 18:4n-3 (delta 6 desaturase; inhibitor 0.02 mM): 28.7%
- % of inhibition 18:2n-6 → 18:3n-6 (delta 6 desaturase; inhibitor 0.04 mM): 32.0%
- % of inhibition 18:3n-3 → 18:4n-3 (delta 6 desaturase; inhibitor 0.04 mM): 42.5%
- % of inhibition 18:2n-6 → 18:3n-6 (delta 6 desaturase; inhibitor 0.08 mM): 64.5%
- % of inhibition 18:3n-3 → 18:4n-3 (delta 6 desaturase; inhibitor 0.08 mM): 54.2%
- % of inhibition 18:2n-6 → 18:3n-6 (delta 6 desaturase; inhibitor 0.16 mM): 82.6%
- % of inhibition 18:3n-3 → 18:4n-3 (delta 6 desaturase; inhibitor 0.16 mM): 71.3%
- % of inhibition 18:2n-6 → 18:3n-6 (delta 6 desaturase; inhibitor 0.32 mM): 98.7%
- % of inhibition 18:3n-3 → 18:4n-3 (delta 6 desaturase; inhibitor 0.32 mM): 79.5%
- % of inhibition ([2]; inhibitor 0.7 mM): 11.6%
- % of inhibition ([2]; inhibitor 1.4 mM): 18.8%
- % of inhibition ([2]; inhibitor 2.8 mM): 56.4%
- % of inhibition ([2]; inhibitor 14.1 mM): 100%
- inhibition [3]: 100%
- O.D.600 ([4]; inhibitor 7 mM): 9.3
- O.D.600 ([4]; inhibitor 14 mM): 7.2
- O.D.600 ([4]; inhibitor 28 mM): 0
- Concentrations that may be toxic for the spheroplasts ([5]; cell number slightly decreased, radioactivity recovered substantially reduced): > 5600 µM
- O.D.600 ([5]; hD6D-1 spheroplasts, inhibitor 0.7 mM): 2.2
- O.D.600 ([5]; hD6D-1 spheroplasts, inhibitor 1.4 mM): 3.4
- O.D.600 ([5]; hD6D-1 spheroplasts, inhibitor 2.8 mM): 3.1
- O.D.600 ([5]; hD6D-1 spheroplasts, inhibitor 5.6 mM): 3.5
- O.D.600 ([5]; hD6D-1 spheroplasts, inhibitor 14.1 mM): 2.5
- Cytotoxicity to spheroplasts ([5]; n-propyl gallate 0.7-5.6 mM, constant O.D.600, similar radioactivity recovered): not cytotoxic
- O.D.600 ([5]; rD6D-1 spheroplasts, inhibitor 0.7 mM): 2.5
- O.D.600 ([5]; rD6D-1 spheroplasts, inhibitor 1.4 mM): 2.6
- O.D.600 ([5]; rD6D-1 spheroplasts, inhibitor 2.8 mM): 2.5
- O.D.600 ([5]; rD6D-1 spheroplasts, inhibitor 5.6 mM): 2.6
- O.D.600 ([5]; rD6D-1 spheroplasts, inhibitor 14.1 mM): 2.3
- inhibition [6]: 82.3%
- Mode of inhibition (fatty acid desaturases): noncompetitive inhibitor
- % of inhibition ([7]; inhibitor 0.7 mM): 8.9%
- % of inhibition ([7]; inhibitor 1.4 mM): 39.2%
- % of inhibition ([7]; inhibitor 2.8 mM): 77.4%
- % of inhibition ([7]; inhibitor 14.1 mM): 100%
